# In patent publication US8076061B2, “Method and composition for cancer diagnosis and treatment” (Ascentgene, Inc., priority 2007, dated 2011):
# Experiments:
# [1] = tested on: PC4-dependent transcription (template pG5HM); experiment: In vitro transcription assay reconstituted with purified general transcription factors; assay type: biochemical
# Text: FIGS. 3A, 3B and 3C show the functional analyses of PC4 mutations in different assays.
# In vitro transcription assay was reconstituted with purified general transcription factors, including TFIIA, TFIIB, TFIID, TFIIF, TFIIH and RNA polymerase II, either purified from HeLa cells or from a recombinant source. This system can be activated in a PC4 and activator-dependent manner. In addition to the transcription factors, the system also contained one activator-responsive template, a basic template (activator-independent), and ^32P-CTP. After incubation at 30° C. for 1 hr, the newly synthesized RNAs were extracted and analyzed on a denatured polyacrylamide gel and visualized by autoradiography.
# PC4 = PC4 (Homo sapiens, UniProt P53999); experiment: Interaction of AH peptide with PC4; assay type: binding; conditions: 15 amino acid peptide
# [2] = tested on: 64 bp dsDNA probe from the adeno major late promoter region; experiment: Electrophoresis mobility shift assay (EMSA), DNA binding activity of PC4 proteins; conditions: purified recombinant PC4 mutant vs wild type, FIG. 3B
# Protocol: EMSA was used to determine the ds-DNA binding activity of PC4 protein and was performed in a 20 ul of reaction containing […] of purified PC4 protein and ^32P-labeled 64 bp dsDNA probe from the adeno major late promoter region. After incubated at 4° C. for 1 hr, the reaction mixture was analyzed on an 8% polyacrylamide gel. The mobilized PC4-dsDNA complex was visualized using autoradiography.
# ssDNA = experiment: Protein array assay (UPA), protein-DNA interaction; assay type: binding; conditions: FIG. 4F
# Protocol: (§1) The protein array assay is based on the “Universal Protein Array” method, also called UPA [Ge, H. (2000) UPA, a universal protein array system for quantitative detection of protein-protein, protein-DNA, protein-RNA and protein-ligand interactions. Nucleic Acids Res. 28, e3]. Purified proteins were validated, normalized and arrayed on a nitrocellulose sheet. Each spot was arrayed in 1 mm diameter containing 10-100 ng of protein depending on size. Targeted proteins that interacted with the PC4 proteins on the array were detected by specific antibodies such as antibodies against transcription factor TFIIA, Gal4, or Sp1. For protein-DNA interaction, probe DNA was labeled with ^32P-dCTP and the bound DNA was monitored by autoradiography.
# [3] = target: T1, transcription factor TFIIA (Homo sapiens, UniProt P52655+P52657); experiment: Protein array assay (UPA), interaction with TFIIA; assay type: binding; conditions: FIG. 4C
# T1 sequence (P52655 1-376): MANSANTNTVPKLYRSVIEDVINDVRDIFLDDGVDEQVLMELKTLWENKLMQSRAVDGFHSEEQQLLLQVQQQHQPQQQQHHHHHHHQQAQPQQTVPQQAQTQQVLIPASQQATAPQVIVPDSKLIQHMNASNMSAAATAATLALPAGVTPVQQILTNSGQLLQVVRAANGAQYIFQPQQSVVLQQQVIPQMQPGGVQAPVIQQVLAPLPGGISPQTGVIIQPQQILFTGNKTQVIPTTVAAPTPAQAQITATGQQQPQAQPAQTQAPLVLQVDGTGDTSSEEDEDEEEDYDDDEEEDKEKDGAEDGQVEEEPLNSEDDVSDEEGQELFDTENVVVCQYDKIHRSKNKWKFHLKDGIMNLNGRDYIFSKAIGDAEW
# T1 sequence (P52657 1-109): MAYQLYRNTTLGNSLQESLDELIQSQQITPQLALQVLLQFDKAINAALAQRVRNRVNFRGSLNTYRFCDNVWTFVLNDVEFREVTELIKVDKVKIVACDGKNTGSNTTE
# Protocol: as §1
# [4] = tested on: transcription factor Sp1 (Gal4-Sp1 fusion protein); experiment: Protein array assay (UPA), interaction with Sp1; assay type: binding; conditions: FIG. 4E
# Protocol: as §1
interaction with PC4 (mimics an activation domain) (PC4),PC4's DNA binding activity [2],ssDNA binding activity of PC4 (ssDNA),interaction of PC4 with TFIIA [3],Substance,"transcription activation, PC4-dependent ([1]; AH fused with a Gal4 DNA binding domain)","PC4 transcription activity ([1]; purified recombinant PC4 mutant vs wild type, FIG. 3C)",interaction of PC4 with Sp1 [4]
interacting strongly,,,,ELQEL′QELQALLQQQ (ELQELQELQALLQQQ; AH15),dramatic transcription activation,,
,abolishes,critical for the ssDNA binding activity,enhances,F77P: recombinant human PC4 protein with single amino acid change F77P,,abolishes,enhances
